Laboratory results reported in patent publication US20140056960A1, “Methods for Improving Fracture Healing and Bone Formation” (Imperial Innovations Limited, priority 2010, published 2014).
Positions count from the first letter of the chain named. “Also recorded” adds a separate entry of the source. Read-outs that look alike come from different tables or passages of the source.

What was measured:
[1] = tested on: human muscle-derived stromal cells; settings: cited from earlier work
[2] = tested on: osteoporotic fracture; test: osteoporotic fracture repair in ovariectomised mice, callus mineralization by microCT; format: in vivo, mouse; settings: for percentage callus mineralization / fracture healing: day 14, 20 μL rhTNF-α 50 ng/ml immediately post fracture and 1 day later, vs PBS
Method: FIG. 6. Addition of exogenous TNF-α accelerates osteoporotic fracture repair in vivo. 20 μL of rhTNF-α at 50 ng/ml was injected at the fracture site immediately post fracture and 1 day later. Osteoporosis was induced by ovariectomising mice 4 weeks prior to surgery. (A). At day 14, mice were harvested and limbs scanned by microCT in a blinded fashion. […] At day 28 post fracture the percentage mineralised callus volume in the three groups (normal, those that had undergone oophorectomy and oophrectomised animals treated with TNF-α) were similar. […] (B).
We have investigated the effect of adding recombinant human TNF-α at the fracture site in mice rendered osteoporotic by oophorectomy 4 weeks previously.

[3] = tested on: tibial fracture; test: murine tibial fracture model: callus mineralization (microCT) and histology after local administration at fracture site; format: in vivo, mouse; settings: for fracture healing / callus mineralization: local, approx. 1 ng or 50 ng/kg (50 ng/ml, 20 microlitres PBS) at time of fracture and 24 hr later, day 28; for fracture healing / percentage callus mineralization: exogenous alarmin at fracture site days 0 and 1 (rmHMGB1 20 μL at 50 ng/ml), day 28 microCT
Method: Percentage callus mineralization was determined from the fracture site to 1 mm proximally (mean+/−SEM). FIG. 5. Dose response of exogenous TNF-α in vivo. 20 μL of PBS with rhTNF-α at the corresponding dose was injected at the fracture site at days 0 and 1 in C57BI/6 mice. At day 28, mice were harvested and limbs scanned by microCT in a blinded fashion. Percentage callus mineralization was determined from the fracture site to 1 mm proximally (threshold density of 350 mg/cm^3). * p<0.05, ** p<0.01. FIG. 7A. […] Percentage callus mineralization was determined from the fracture site to 1 mm proximally (mean+/−SEM). FIG. 18. […] C57BI6 mice were subjected to fracture model with addition of 20 μL of rmHMGB1 at 50 ng/ml at the fracture site at days 0 and 1 compared to controls. Addition of exogenous S100A8 or S100A9 or S100A8/9 had no effect, possibly because the fracture environment may already contain optimal amounts of S100 A8 or A9 proteins. All mice were harvested at day 28 and limbs scanned by microCT in a blinded fashion. Percentage callus mineralization was determined from the fracture site to 1 mm proximally (mean+/−SEM). […] Inflammation plays a vital role in early fracture repair^11,12. In murine models, TNF-α, IL-1 and IL-6 are expressed at the fracture site within 24 hours of injury^13,14. Biphasic expression of TNF-α and IL-1β appears to be linked to the initiation of fracture repair and later to endochondral maturation^14,15. In our murine model, callus mineralization at day 28 was enhanced when TNF-α, at a concentration of 50 ng/kg was injected locally following injury (day 0) and 24 hours later.

[4] = tested on: rib fracture; settings: cited from earlier work
[5] = human, in vivo, cited from earlier work
[6] = tested on: intramuscular bone-inducing implant; settings: daily intra-peritoneal administration; cited from earlier work
[7] = tested on: tibial fracture; test: murine tibial fracture model: callus mineralization (microCT) and histology after local administration at fracture site; format: in vivo, mouse
[8] = tested on: PBMCs; test: TNF-α production by PBMCs (ELISA, 14 hours); format: cell-based, human; settings: for TNF-α production by PBMCs: PBMCs 1*10^5/ml, 10% FCS, alarmin at indicated doses
Method: FIG. 10. […] (A) PBMCs at 1*10^5/ml were incubated in 10% fetal calf serum (FCS) with S100 A8 at indicated doses. […] (B) PBMCs at 1*10^5/ml were incubated in 10% FCS with S100 A8 at 0.5 μg/ml with the addition of either antibody to TLR4, TLR2 or isotype controls (not shown), or sRAGE over 14 hours. TNF-α levels were determined by ELISA.
FIG. 12. […] PBMCs at 1*10^5/ml were incubated in 10% FCS with S100 A8, S100 A9 or S100 A12 at the indicated doses over 14 hours. TNF-α levels were determined by ELISA.
FIG. 17. […] PBMCs at 1*10^5/ml were incubated in 10% FCS with HMGB1 or LPS at the indicated doses over 14 hours; TNF-α levels were determined by ELISA.

[9] = tested on: bone marrow cells; test: TNF-α production by bone marrow cells from wild type, TLR-4 and MyD88 knockout mice; format: cell-based, mouse; settings: WT, TLR-4 and MyD88 knockout bone marrow cells
Text: FIG. 11. TNF-α production by bone marrow cells from wild type (WT), TLR-4 and MyD88 knockout mice treated with murine S100A8.

In the case of “IL-1β: pro-inflammatory cytokine with some osteogenic activity in vitro”, the “bone nodule formation in vitro” value ([1]; cytokine alone, human specimens) is listed as “does not promote bone nodule formation” and the alkaline phosphatase production ([1]; human muscle-derived stromal cells) is listed as “increased alkaline phosphatase production”.

For TNF-α, the “percentage callus mineralization / fracture healing” value [2] was “significantly greater”, the “percentage callus mineralization / fracture healing” value ([2]; listed as recombinant human TNF-α) was “significantly accelerated fracture healing” and the “percentage mineralised callus volume” value ([2]; day 28 post fracture, normal vs oophorectomy vs oophorectomy + TNF-α) was “similar”. For the same molecule, the “3D reconstructions of fracture site” value ([2]; rhTNF-α group vs PBS control) was “bridging of the fracture site with callus and ossification of the cartilaginous intermediary as well as remodelling of the ossified callus”, the “callus mineralization at day 28” value ([3]; "high" dose of 5-100 μg/kg) was “significantly less callus mineralization” and the “callus mineralization at day 28” value ([3]; "low" dose of 50 pg/kg) was “indistinguishable from the PBS only control”. For the same molecule, the “fracture healing compared to PBS control” value ([3]; doses of 10 pg to 1 ng at fracture site (FIG. 5)) was “significantly accelerated healing”, the “fracture healing / callus mineralization” value [3] was “effective in promoting bone formation and accelerating fracture healing; also recorded: enhanced; also recorded: significantly accelerated healing of the fracture” and the “fracture healing / callus mineralization” value ([3]; listed as rhTNF-α) was “accelerate callus mineralization”. For the same molecule, the fracture healing ([4]; 40 μg/kg/day) was “(non significant) improvement in fracture healing”, the fracture healing ([4]; daily intra-peritoneal 400 μg/kg) was “impaired healing” and the “adverse effect, highest doses administered repeatedly” value ([5]; sc) was “minor local reactions”. The “adverse effect, highest doses administered repeatedly” value [5] was “clinically insignificant thrombocytopaenia”, the “single doses found safe” value [5] was “up to 400 micrograms” and the “bone formation around implant” value [6] was “inhibited bone formation”. For the same molecule, the “histology of tibial fracture” value ([7]; 14 days post injury, local TNF-α 50 ng/kg body weight (1 ng/ml) in PBS) was “complete bridging of the fracture site by hard callus (bone) and remodelling of the fracture callus”, the “effect at 10 fold increase beyond optimal range” value ([1]; 10 ng/ml) was “significant diminution in effect” and the “migration and osteogenic differentiation of MDSC” value [1] was “can migrate and differentiate upon stimulation; also recorded: clear concentration dependency; also recorded: accelerates bone formation within a narrow therapeutic window and is inhibitory at high concentrations”. For the same molecule, the “optimal in vitro dose” value [1] was 0.1 to 1 ng/mL.

B1: HMGB1: alarmin; highly purified HMGB-1 (protein, UniProt P09429 1-215, looked up)
High mobility group protein B1: MGKGDPKKPRGKMSSYAFFVQTCREEHKKKHPDASVNFSEFSKKCSERWKTMSAKEKGKFEDMAKADKARYEREMKTYIPPKGETKKKFKDPNAPKRPPSAFFLFCSEYRPKIKGEHPGLSIGDVAKKLGEMWNNTAADDKQPYEKKAAKLKEKYEKDIAAYRAKGKPDAAKKGVVKAEKSKKKKEEEEDEEDEEDEEEEEDEEDEDEEEDDDDE
In the case of B1, the fracture healing ([3]; 1 mg/ml at fracture site at days 0 and 1, 28 days post fracture) is reported as “significantly (p=0.02) accelerated healing”, the “fracture healing / percentage callus mineralization” value [3] is reported as “accelerated healing; also recorded: accelerates fracture healing” and the “TNF-α production by PBMCs, HMGB1 with addition of LPS” value ([8]; HMGB1 and LPS at indicated doses) is reported as “synergistic effect”. The “TNF-α production by PBMCs” value [8] was “not pro-inflammatory in isolation in vitro” and the “TNF-α production by PBMCs” value ([8]; listed as HMGB-1) was “did not lead to TNF-α production”.

B2: rmHMGB1: exogenous alarmin rmHMGB1 added locally at the fracture site (protein, UniProt P63158 1-215, looked up)
High mobility group protein B1: B1 High mobility group protein B1 with E189D, D202E
In the case of B2, the “fracture healing / percentage callus mineralization” value [3] is reported as “accelerates fracture; also recorded: improves callus mineralisation”.

B3: S100A9: alarmin (protein, UniProt P06702 1-114, looked up)
Protein S100-A9: MTCKMSQLERNIETIINTFHQYSVKLGHPDTLNQGEFKELVRKDLQNFLKKENKNEKVIEHIMEDLDTNADKQLSFEEFIMLMARLTWASHEKMHEGDEGPGHHHKPGLGEGTP
For B3, the “fracture healing / percentage callus mineralization” value [3] was “no effect”, the “TNF-α production by PBMCs” value [8] was “much lower effect than S100A8” and the “TNF-α production by PBMCs” value ([8]; listed as S100 A9) was “much less potent than S100 A8”.

B4: S100A8/9: alarmin (protein, UniProt P05109 1-93; P06702 1-114, looked up)
Protein S100-A8: MLTELEKALNSIIDVYHKYSLIKGNFHAVYRDDLKKLLETECPQYIRKKGADVWFKELDINTDGAVNFQEFLILVIKMGVAAHKKSHEESHKE
Protein S100-A9: B3 Protein S100-A9
With B4 the “fracture healing / percentage callus mineralization” value [3] was “no effect” and the “TNF-α production by PBMCs” value [8] was “no activity”.

B5: recombinant murine IL-10: an anti-inflammatory cytokine (protein, UniProt P18893 19-178, looked up)
Interleukin-10: SRGQYSREDNNCTHFPVGQSHMLLELRTAFSQVKTFFQTKDQLDNILLTDSLMQDFKGYLGCQALSEMIQFYLVEVMPQAEKHGPEIKEHLNSLGEKLKTLRMRLRRCHRFLPCENKSKAVEQVKSDFNKLQDQGVYKAMNEFDIFINCIEAYMMIKMKS
For B5, the “fracture healing as percentage mineralized callus volume” value ([7]; 14 days post fracture, administered at fracture site) was “inhibition of fracture healing”.

B6: murine S100A8: murine alarmin S100A8 used on mouse bone marrow cells (protein, UniProt P27005 2-89, looked up)
Protein S100-A8: PSELEKALSNLIDVYHNYSNIQGNHHALYKNDFKKMVTTECPQFVQNINIENLFRELDINSDNAINFEEFLAMVIKVGVASHKDSHKE
With B6 the “receptor dependence of TNF-α production” value [9] was “largely dependent on TLR-4 receptor and absolutely dependent on MyD88”.
